What all share (type): functional
The subject of test [1] is Escherichia coli. The experiment in a line: Antimicrobial activity against Escherichia coli DH10B expressing pCRQB10 in presence of IPTG. The settings on record: K-12 substr. DH10B.
Test [2] has as its system Escherichia coli. The experiment in a line: Antimicrobial activity against multidrug-resistant Escherichia coli M7943-TC2 bearing qnrB10 gene with aac(6)-Ib-cr-blaOXA-30 catB3-arr-3 integron in presence of IPTG.
In test [3] the test system is Escherichia coli. Put plainly: Antimicrobial activity against Escherichia coli DH10B expressing pCR2.1 in presence of IPTG. The note with it: K-12 substr. DH10B.
Test [4] deals with Enterobacter cloacae. Put plainly: Antimicrobial activity against multidrug-resistant Enterobacter cloacae E705 bearing qnrB10 gene with aac(6)-IId-aadA1a integron in presence of IPTG.
The test system of test [5] is Klebsiella pneumoniae. The experiment in a line: Antimicrobial activity against multidrug-resistant Klebsiella pneumoniae M7943 bearing qnrB10 gene with aac(6)-Ib-cr-blaOXA-30 catB3-arr-3 integron in presence of IPTG.
Test [6] has as its system Escherichia coli. Put plainly: Antimicrobial activity against Escherichia coli DH10B in presence of IPTG. The settings on record: K-12 substr. DH10B.
The test system of test [7] is Escherichia coli. The experiment in a line: Antimicrobial activity against Escherichia coli J53-AzR in presence of IPTG.

Broadly, the MIC is the lowest concentration found to suppress growth.

Some results are limits rather than exact numbers.

For `NCC[C@H](O)C(=O)N[C@@H]1C[C@H](N)[C@@H](O[C@H]2O[C@H](CN)[C@@H](O)[C@H](O)[C@H]2O)[C@H](O)[C@H]1O[C@H]1O[C@H](CO)[C@@H](O)[C@H](N)[C@H]1O` [AMIKACIN], the minimum inhibitory concentration (MIC) in test [1] is 2 µg/mL; in test [2], 4 µg/mL; in test [3], 2 µg/mL; in test [4], 8 µg/mL; in test [5] it was 16 µg/mL; in test [6], 1 µg/mL. Moreover, the MIC in test [7] is 0.5 µg/mL.

As for `O=C(O)c1cn(C2CC2)c2cc(N3CCNCC3)c(F)cc2c1=O` [CIPROFLOXACIN], the MIC in test [5] came out at 32 µg/mL.

As for `COc1c(N2CCNC(C)C2)c(F)cc2c(=O)c(C(=O)O)cn(C3CC3)c12` (stereo unspecified) [GATIFLOXACIN], the minimum inhibitory concentration (MIC) in test [1] is 0.06 µg/mL; in test [2] it was 0.5 µg/mL; in test [3], 0.004 µg/mL; in test [4], 32 µg/mL; in test [5], 4 µg/mL; in test [6] it was 0.004 µg/mL. Further, the MIC in test [7] is 0.03 µg/mL.

For the molecule `NC[C@H]1O[C@H](O[C@H]2[C@H](O)[C@@H](O[C@H]3O[C@H](CO)[C@@H](O)[C@H](N)[C@H]3O)[C@H](N)C[C@@H]2N)[C@H](O)[C@@H](O)[C@@H]1O` [KANAMYCIN], the MIC in test [1] is at least 256 µg/mL; in test [2], 64 µg/mL; in test [3], at least 256 µg/mL; in test [4], at least 256 µg/mL; in test [5], 128 µg/mL; in test [6], 1 µg/mL. Further, in test [7], the MIC turned out to be 2 µg/mL.

Take `C[C@H]1COc2c(N3CCN(C)CC3)c(F)cc3c(=O)c(C(=O)O)cn1c23.C[C@H]1COc2c(N3CCN(C)CC3)c(F)cc3c(=O)c(C(=O)O)cn1c23.O` [LEVOFLOXACIN]: the MIC in test [3] is 0.004 µg/mL; in test [4] it was at least 64 µg/mL; in test [5] it was 4 µg/mL; in test [6], 0.004 µg/mL.

In the case of `COc1c(N2C[C@@H]3CCCN[C@@H]3C2)c(F)cc2c(=O)c(C(=O)O)cn(C3CC3)c12` [MOXIFLOXACIN], the MIC in test [1] came out at 0.125 µg/mL; in test [2], 1 µg/mL; in test [3], 0.004 µg/mL; in test [5], 8 µg/mL; in test [6] it was 0.004 µg/mL.

As for `CCn1cc(C(=O)O)c(=O)c2ccc(C)nc21` [NALIDIXIC ACID], the MIC in test [1] is 8 µg/mL; in test [2], 16 µg/mL; in test [3] it was 2 µg/mL; in test [4], at least 256 µg/mL; in test [5], 128 µg/mL; in test [6] it was 2 µg/mL. Moreover, the MIC in test [7] amounted to 4 µg/mL.

Take `CCn1cc(C(=O)O)c(=O)c2cc(F)c(N3CCNCC3)cc21` [NORFLOXACIN]: the minimal inhibitory concentration (MIC) was 0.125 µg/mL in test [1]; 2 µg/mL in test [2]; 0.008 µg/mL in test [3]; at least 64 µg/mL in test [4]; 32 µg/mL in test [5]; 0.008 µg/mL in test [6]. Further, the minimum inhibitory concentration (MIC) in test [7] turned out to be 0.03 µg/mL.

`CC1COc2c(N3CCN(C)CC3)c(F)cc3c(=O)c(C(=O)O)cn1c23` (stereo unspecified) [OFLOXACIN]: the minimum inhibitory concentration (MIC) was 0.004 µg/mL in test [3], at least 64 µg/mL in test [4], 8 µg/mL in test [5] and 0.004 µg/mL in test [6].

Turning to `NC[C@H]1O[C@H](O[C@H]2[C@H](O)[C@@H](O[C@H]3O[C@H](CO)[C@@H](O)[C@H](N)[C@H]3O)[C@H](N)C[C@@H]2N)[C@H](N)C[C@@H]1O` [TOBRAMYCIN], the minimum inhibitory concentration (MIC) in test [1] turned out to be 0.25 µg/mL; in test [2] it was 16 µg/mL; in test [3], 0.25 µg/mL; in test [4], 32 µg/mL; in test [5], 16 µg/mL; in test [6] it was 0.25 µg/mL. The MIC in test [7] stood at 0.25 µg/mL.

Source of the values: ChEMBL document CHEMBL1151447, “Complex class 1 integrons with diverse variable regions, including aac(6')-Ib-cr, and a novel allele, qnrB10, associated with ISCR1 in clinical enterobacterial isolates from Argentina” (2007).
